Test results taken from patent publication US4371537A, “Sulfur-substituted phenoxypyridines having antiviral activity” (The Dow Chemical Company, priority 1981, dated 1983).
≈ marks a conversion by molar mass, not a printed value.

Assays:
Assay type in all cases: cell-based
[1] = system: rhinovirus type 1A (RV-1A); assay: Tissue culture testing, rhinovirus type 1A in HeLa cells; settings: 48 and 72 hours, NA = not active at the standard test conditions; for EC50: Enterovirus, read-out: RV-1A: lowest concentration of the compound necessary to cause a 50 percent reduction in cytopathic effect
Protocol: (§1) Monolayered HeLa cells in 16 millimeter (mm) tissue culture dishes were treated with 1 ml of culture medium (Eagles medium supplemented with fetal calf serum) containing subject compound at an appropriate concentration or containing no compound at all. Culture media such as those described herein are more fully described in standard texts, as for example, Kuchler's Biochemical Methods in Cell Culture and Virology, Dowden, Hutchinson and Ross, Inc., Stroudsberg, PA (1977). Following treatment, cells were challenged with 0.05 ml of rhinovirus type 1A (RV-1A), rhinovirus type 2 (RV-2) or Coxsackie A21 virus (Cox A21) in culture medium. Some of the compounds were also tested against rhinovirus type 5 (RV-5), rhinovirus type 8 (RV-8) or rhinovirus type 64 (RV-64). Cell controls received no viruses.
(§2) ^2 Lowest concentration of the compound (μg/ml) necessary to cause

[2] = system: Coxsackie A21 virus (Cox A21); assay: Tissue culture testing, Coxsackie A21 virus in HeLa cells; settings: 48 and 72 hours, NA = not active at the standard test conditions; for EC50: read-out: Cox A21: lowest concentration of the compound necessary to cause a 50 percent reduction in cytopathic effect
Protocol: as §1, §2

[3] = Cytotoxicity in tissue culture testing (HeLa monolayers); settings: human; HeLa cells; observed at 48 and 72 hours post-treatment; read-out: Cytotoxicity: concentration of the compound found to be toxic to the cell
Protocol: as §1
^1 Cytotoxicity figures represent the concentration of the compound, […]

rhinovirus type 2 (RV-2) = assay: Tissue culture testing, rhinovirus type 2 in HeLa cells; settings: 48 and 72 hours, NA = not active at the standard test conditions; for EC50: Enterovirus, read-out: RV-2: lowest concentration of the compound necessary to cause a 50 percent reduction in cytopathic effect
Protocol: as §1, §2

SMILES	EC50 [1] [µg/mL]	EC50 [2] [µg/mL]	EC50 (rhinovirus type 2 (RV-2)) [µg/mL]	MCC [3] [µg/mL]	RV-1A: lowest concentration of the compound necessary to cause a 50 percent reduction in cytopathic effect [1]	Cox A21: lowest concentration of the compound necessary to cause a 50 percent reduction in cytopathic effect [2]	RV-2: lowest concentration of the compound necessary to cause a 50 percent reduction in cytopathic effect (rhinovirus type 2 (RV-2))
C[S+]([O-])c1cncc(Oc2ccc(Cl)c(Cl)c2)c1 (centres unmarked) [Example 76, 3-(3,4-dichlorophenoxy)-5-(methylsulfinyl)pyridine]	12.5 (≈ 41.4 µM)	25 (≈ 82.7 µM)	6.25 (≈ 20.7 µM)	25			
CS(=O)(=O)c1cncc(Oc2ccc(Cl)c(Cl)c2)c1 [Example 77, 3-(3,4-dichlorophenoxy)-5-(methylsulfonyl)pyridine]	6.25 (≈ 19.6 µM)	3.12 (≈ 9.82 µM)	12.5 (≈ 39.3 µM)	> 50			
CS(=O)(=O)c1cc(Oc2ccc(Cl)c(Cl)c2)ccn1 [Example 66, 4-(3,4-dichlorophenoxy)-2-(methylsulfonyl)pyridine]	12.5 (≈ 39.3 µM)	12.5 (≈ 39.3 µM)	12.5 (≈ 39.3 µM)	25			
CSc1cncc(Oc2ccc(Cl)c(Cl)c2)c1 [Example 75, 3-(3,4-dichlorophenoxy)-5-(methylthio)pyridine]	6.25 (≈ 21.8 µM)	3.12 (≈ 10.9 µM)	6.25 (≈ 21.8 µM)	6.25			
O=C(c1ccccc1)c1ccc(Oc2ccc(S(=O)(=O)C3CCCCC3)cn2)cc1 [Example 59, (4-((5-(cyclohexylsulfonyl)-2-pyridinyl)oxy)phenyl)phenylmethanone]	3.12 (≈ 7.41 µM)	< 3.12	12.5 (≈ 29.7 µM)	12.5			
CS(=O)(=O)c1cccnc1Oc1ccc(C(=O)c2ccccc2)cc1 [Example 72, (4-((3-(methylsulfonyl)-2-pyridinyl)oxy)phenyl)phenylmethanone]	25 (≈ 70.7 µM)	12.5 (≈ 35.4 µM)	25 (≈ 70.7 µM)	25			
CS(=O)(=O)c1cccnc1Oc1ccc(Cl)c(Cl)c1 [Example 71, 2-(3,4-dichlorophenoxy)-3-(methylsulfonyl)pyridine]	25 (≈ 78.6 µM)	50 (≈ 157 µM)	50 (≈ 157 µM)	50			
CC(=O)c1ccc(Oc2cccc(S(C)(=O)=O)n2)cc1 [1-(4-((6-(methylsulfonyl)-2-pyridinyl)oxy)phenyl)ethanone]					not active	not active	not active

The next lines start with results.

EC50 [1] [µg/mL]	EC50 [2] [µg/mL]	EC50 (rhinovirus type 2 (RV-2)) [µg/mL]	SMILES	MCC [3] [µg/mL]	RV-1A: lowest concentration of the compound necessary to cause a 50 percent reduction in cytopathic effect [1]	Cox A21: lowest concentration of the compound necessary to cause a 50 percent reduction in cytopathic effect [2]	RV-2: lowest concentration of the compound necessary to cause a 50 percent reduction in cytopathic effect (rhinovirus type 2 (RV-2))
25 (≈ 78.6 µM)	< 3.12	25 (≈ 78.6 µM)	CS(=O)(=O)c1ccnc(Oc2ccc(Cl)c(Cl)c2)c1 [Example 65, 2-(3,4-dichlorophenoxy)-4-(methylsulfonyl)pyridine]	50			
< 3.12	6.25 (≈ 17 µM)	3.12 (≈ 8.52 µM)	CCS(=O)(=O)c1ccc(Oc2cc(Cl)c(Cl)cc2Cl)nc1 [Example 48, 5-(ethylsulfonyl)-2-(2,4,5-trichlorophenoxy)pyridine]	> 50			
		25 (≈ 81.3 µM)	CCS(=O)(=O)c1ccc(Oc2ccc3c(c2)OCO3)nc1 [Example 41, 5-(ethylsulfonyl)-2-(3,4-methylenedioxyphenoxy)pyridine]	≥ 50			
< 3	3 (≈ 10.2 µM)	< 2	CSc1ccc(Oc2ccc(S(C)(=O)=O)cn2)cc1 [Example 37, 2-(4-(methylthio)phenoxy)-5-(methylsulfonyl)pyridine]	> 50			
25 (≈ 75.3 µM)		25 (≈ 75.3 µM)	CCS(=O)(=O)c1cccnc1Oc1ccc(Cl)c(Cl)c1 [Example 73, 2-(3,4-dichlorophenoxy)-3-(ethylsulfonyl)pyridine]	25			
25 (≈ 63.1 µM)	6.25 (≈ 15.8 µM)	25 (≈ 63.1 µM)	O=S(=O)(c1ccc(Oc2ccc(Br)cc2)nc1)C1CCCCC1 [Example 57, 2-(4-bromophenoxy)-5-(cyclohexylsulfonyl)pyridine]	50			
25 (≈ 64.7 µM)	25 (≈ 64.7 µM)	12.5 (≈ 32.4 µM)	O=S(=O)(c1ccc(Oc2ccc(Cl)c(Cl)c2)nc1)C1CCCCC1 [Example 58, 2-(3,4-dichlorophenoxy)-5-(cyclohexylsulfonyl)pyridine]	50			
